Laboratory results as given in article PMC467089, “Click estradiol dimers with novel aromatic bridging units: synthesis and anticancer evaluation” (Journal of Enzyme Inhibition and Medicinal Chemistry, 2024).
“Also recorded” adds a separate entry of the source.

Tests used:
[1] = MTS cytotoxicity assay, MRC-5; format: cell-based; settings: human
How it was run: (§1)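 MTS read-out after 72 h compound exposure at 37 °C. Cells plated the day before, treated with fourfold serial dilutions from DMSO stocks; duplicate wells, three independent experiments.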

U2OS cells = assay: Immunofluorescence of microtubules / mitotic spindle; format: cell-based, human; settings: 1 µM, 24-h incubation
From the text: In addition, the presence of aster-like tubulin structures indicated the failure in microtubule elongation (Figure 4, ED5). […] The observed intracellular effects of ED3 and ED5 are consistent with data from in vitro assembly assays and cell cycle analyses, thereby strongly supporting the proposed antimitotic mechanisms of these EDs. […] Importantly, cytotoxic IC50 values may vary depending on the duration of exposure to the drug. A more extended exposure could lead to a decrease in the IC50 value, and vice versa. This temporal factor could also contribute to the observed differential sensitivity among the cell lines. The detailed mechanism and the extent to which these cellular and molecular dynamics (MD) contribute to the observed phenomenon might necessitate further investigation and experimentation.
U2OS cells, cultivated on coverslips, underwent a PBS wash and were then fixed in a solution of 3% paraformaldehyde in a buffer containing 10 mM MES, 150 mM NaCl, 5 mM EGTA, 5 mM MgCl2, 5 mM glucose, adjusted to a pH of 6.1. The nuclei were made visible using Hoechst 33342. Subsequently, a 60-min blocking step with 5% goat serum in PBS (SpinChem, Seattle, WA) was followed by a 60-min incubation with α-tubulin (DM1A) mouse monoclonal antibody (Cell Signaling, Danvers, MA) in PBS supplemented with 1% BSA and 0.3% Triton X-100. Visualisation was achieved using Alexa Fluor-488 conjugated anti-mouse antibodies (Life Technologies, Carlsbad, CA). Between each step, the samples underwent a series of three 5-min washes with PBS. Finally, the samples were mounted using Vectashield Mounting Medium with DAPI and imaged utilising a Zeiss spinning disk confocal microscope equipped with CSU-X1 unit (Yokogawa, Musashino, Japan)[10].

[2] = MTS cytotoxicity assay, HUVEC; format: cell-based; settings: human
How it was run: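 Cells seeded overnight, then exposed to fourfold serial dilutions of compounds (DMSO) for 72 h at 37 °C, 5% CO2; viability read by MTS reagent. Technical duplicates, three biological replicates. HCT116p53−/− is the p53-null variant.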

[3] = MTS cytotoxicity assay, BJ; format: cell-based; settings: human
How it was run: (§2)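 Viability is measured by MTS after cells, seeded overnight, receive fourfold-diluted compounds for 72 h at 37 °C.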

[4] = tested on: K562-TAX (paclitaxel-resistant variant of K562); assay: MTS cytotoxicity assay, K562-TAX; format: cell-based, human; settings: Homo sapiens, K562-Tax, 72 h, read-out: IC50 cytotoxic activity K562-TAX
How it was run: as §2

U2OS (osteosarcoma) = assay: MTS cytotoxicity assay, U2OS; format: cell-based, human; settings: Homo sapiens, U2OS, 72 h, read-out: IC50 cytotoxic activity U2OS
How it was run: as §2

HUVEC cells = assay: Endothelial cell tube formation angiogenesis assay; format: cell-based, human; settings: 60 nM, 24 h, Matrigel
Description: The experiment was performed in 96-well plates pre-coated with 50 μL of growth factor reduced basement membrane matrix Matrigel (Corning, Corning, NY). The coating was set by incubating the plates for 1 h at 37 °C. Subsequently, HUVEC cells were seeded at a density of 15 000 cells per well, and dissolved test substances were added to this layer in a total volume of 100 μL. The assay plates were then incubated for 24 h to facilitate endothelial tube formation. After this incubation, the cells were stained with Hoechst 33342 (Thermo Fisher Scientific, Waltham, MA) to a final concentration of 10 μM and calcein AM (Invitrogen, Carlsbad, CA) to a final concentration of 2 µg/mL for 30 min, followed by visualisation in DIC and fluorescent modes using a Zeiss fluorescent microscope (Oberkochen, Germany).

[5] = tested on: CEM-DNR (daunorubicin resistant variant of CCRF-CEM); assay: MTS cytotoxicity assay, CEM-DNR; format: cell-based, human; settings: Homo sapiens, CEM-DNR, 72 h, read-out: IC50 cytotoxic activity CEM-DNR
How it was run: as §2

[6] = tested on: A549 (lung adenocarcinoma); assay: MTS cytotoxicity assay, A549; format: cell-based, human; settings: Homo sapiens, A549, 72 h, read-out: IC50 cytotoxic activity A549
How it was run: as §2

porcine brain tubulin [7] = biological target: T1, porcine brain tubulin (Sus scrofa, UniProt P02550+P02554); design: method as in PMID 36592487; settings: dimers of the previous study; ref [10]; cited from earlier work
T1 construct: Polymerisation of porcine brain tubulin (>99% purity) was measured; purchased Cytoskeleton, Denver, CO; host or cells: porcine brain (tissue-purified)

CCRF-CEM lymphoblasts [8] = assay: BrU incorporation analysis (RNA synthesis); format: cell-based, human
How it was run: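 CCRF-CEM cells were treated with compounds for 24 h, then pulsed with 1 mM BrU for 30 min and fixed in 1% paraformaldehyde/0.05% NP-40. BrU was detected with a cross-reacting anti-BrdU antibody and FITC secondary, with propidium iodide/RNase counterstain; value is percentage of BrU-positive cells by flow cytometry.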

porcine brain tubulin [9] = biological target: T1, porcine brain tubulin; assay: Tubulin polymerisation assay; format: biochemical; settings: 10 μmol/L, Vmax relative to DMSO
How it was run: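 Porcine brain tubulin (>99% pure) was polymerised at 37 °C with 10 μmol/L test compound or DMSO and monitored on a plate reader. Vmax was derived from the polymerisation curves.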

[10] = tested on: CCRF-CEM (childhood T-cell acute lymphoblastic leukaemia); assay: MTS cytotoxicity assay, CCRF-CEM; format: cell-based; settings: Homo sapiens, 72 h, read-out: IC50 cytotoxic activity CCRF-CEM
How it was run: as §1

CCRF-CEM lymphoblasts [11] = assay: BrDU incorporation analysis (DNA synthesis); format: cell-based, human
How it was run: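 CCRF-CEM cells exposed to compounds for 24 h, pulse-labelled 30 min before harvest with 10 μM BrDU, ethanol-fixed, HCl-denatured, stained with anti-BrdU/FITC plus propidium iodide and RNase. Flow cytometry (488 nm) gives the percentage of BrDU-positive cells.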

CCRF-CEM lymphoblasts [12] = assay: Cell cycle analysis by flow cytometry (propidium iodide); format: cell-based, human
How it was run: (§3)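 CCRF-CEM cells treated 24 h, then fixed in cold 70% ethanol, permeabilised with 0.25% Triton X-100 and stained with anti-phospho-histone H3 (Ser10). After 50 μg/mL RNase and propidium iodide, analysed by flow cytometry at 488 nm; sub-G1 events counted as non-viable with fragmented DNA.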

CCRF-CEM lymphoblasts [13] = assay: Phospho-histone H3 (Ser10) mitotic marker, flow cytometry; format: cell-based, human
How it was run: as §3

[14] = tested on: HCT116 (colorectal adenocarcinoma); assay: MTS cytotoxicity assay, HCT116; format: cell-based; settings: Homo sapiens, HCT-116, 72 h, read-out: IC50 cytotoxic activity HCT116
How it was run: as §1

[15] = tested on: HCT116p53−/− (p53 gene null variant of HCT116); assay: MTS cytotoxicity assay, HCT116p53−/−; format: cell-based; settings: Homo sapiens, HCT-116, 72 h, read-out: IC50 cytotoxic activity HCT116p53-
How it was run: as §1

[16] = tested on: K562 (chronic myelogenous leukaemia); assay: MTS cytotoxicity assay, K562; format: cell-based; settings: Homo sapiens, K562, 72 h, read-out: IC50 cytotoxic activity K562
How it was run: as §1

T1 sequence (P02550 whole entry): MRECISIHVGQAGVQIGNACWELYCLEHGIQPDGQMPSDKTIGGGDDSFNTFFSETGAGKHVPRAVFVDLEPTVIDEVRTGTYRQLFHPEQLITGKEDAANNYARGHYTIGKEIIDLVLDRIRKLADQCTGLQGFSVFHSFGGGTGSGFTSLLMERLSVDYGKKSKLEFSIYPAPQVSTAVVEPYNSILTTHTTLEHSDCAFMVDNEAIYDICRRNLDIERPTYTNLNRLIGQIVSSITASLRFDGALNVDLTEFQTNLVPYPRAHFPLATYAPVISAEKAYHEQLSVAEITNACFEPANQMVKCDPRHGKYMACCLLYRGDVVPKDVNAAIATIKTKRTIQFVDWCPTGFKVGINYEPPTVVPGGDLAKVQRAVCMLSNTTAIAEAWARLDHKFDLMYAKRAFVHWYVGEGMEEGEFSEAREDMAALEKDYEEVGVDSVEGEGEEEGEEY
T1 sequence (P02554 whole entry): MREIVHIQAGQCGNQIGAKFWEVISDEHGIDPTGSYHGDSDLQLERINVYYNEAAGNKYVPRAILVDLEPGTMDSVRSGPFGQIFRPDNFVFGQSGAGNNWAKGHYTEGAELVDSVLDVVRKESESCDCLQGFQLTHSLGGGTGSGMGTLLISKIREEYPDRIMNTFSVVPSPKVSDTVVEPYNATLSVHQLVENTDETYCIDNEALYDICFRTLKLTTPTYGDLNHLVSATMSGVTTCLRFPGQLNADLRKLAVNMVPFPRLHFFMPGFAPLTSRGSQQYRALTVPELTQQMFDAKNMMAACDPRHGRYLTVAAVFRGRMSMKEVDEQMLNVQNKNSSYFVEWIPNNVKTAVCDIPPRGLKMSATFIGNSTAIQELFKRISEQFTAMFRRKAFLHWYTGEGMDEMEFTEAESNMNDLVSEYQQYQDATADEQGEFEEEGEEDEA

With `COc1cc2c(c(OC)c1OC)-c1ccc(OC)c(=O)cc1[C@@H](NC(C)=O)CC2` [Colchicine, reference compound] the IC50 at 72 h ([1]; MTS assay, 72-h incubation, mean ± SD of 3 independent experiments, read-out: IC50 cytotoxic activity MRC-5) was 0.055 ± 0.029 µM, the “microtubule organisation in mitotic cells (in words)” value (U2OS cells) was “complete absence of the spindle with diffuse tubulin signal” and the IC50 at 72 h ([2]; MTS assay, 72-h incubation, mean ± SD of 3 independent experiments, read-out: IC50 cytotoxic activity HUVEC) was less than 0.0122 µM. For the same compound, the IC50 at 72 h ([3]; MTS assay, 72-h incubation, mean ± SD of 3 independent experiments, read-out: IC50 cytotoxic activity BJ) was greater than 50 µM, the IC50 [4] was 1.83 ± 0.19 µM and the IC50 (U2OS (osteosarcoma)) was 0.028 ± 0.014 µM. The “endothelial cell tube formation (in words)” value (HUVEC cells) was “prevented endothelial cell tube formation”, the IC50 [5] was 1.02 ± 0.21 µM and the IC50 [6] was 0.047 ± 0.028 µM.

For `COc1cc(CN(CCn2cc([C@]3(O)CC[C@H]4[C@@H]5CCc6cc(O)ccc6[C@H]5CC[C@@]43C)nn2)CCn2cc([C@]3(O)CC[C@H]4[C@@H]5CCc6cc(O)ccc6[C@H]5CC[C@@]43C)nn2)ccc1O` [D9], the Tubulin polymerisation inhibition (porcine brain tubulin [7]) is listed as 49.6%.

In the case of `C[C@]12CC[C@@H]3c4ccc(O)cc4CC[C@H]3[C@@H]1CC[C@@]2(O)c1cn(Cc2ccc(O)c(Cn3cc([C@]4(O)CC[C@H]5[C@@H]6CCc7cc(O)ccc7[C@H]6CC[C@@]54C)nn3)n2)nn1` [ED12, 17,17′-[(3-Hydroxypyridine-2,6-diyl)bis(methylene-1H-1,2,3-triazole-1,4-diyl)]di[estra-1,3,5(10)-triene-3,17β-diol]], the “BrU, % of positive cells” value (CCRF-CEM lymphoblasts [8]; 1×IC50, 24 h) is reported as 33.92%, the “BrU, % of positive cells” value (CCRF-CEM lymphoblasts [8]; 5×IC50, 24 h) is reported as 8.14% and the “inhibitory activity against tubulin polymerisation (in words)” value (porcine brain tubulin [9]) is reported as “comparable or better inhibitory activity; also recorded: comparable to that of the original ED”. For the same compound, the IC50 at 72 h [1] was 14.2 ± 3.52 µM, the IC50 [10] was 6.14 ± 0.93 µM and the “BrDU, % of positive cells” value (CCRF-CEM lymphoblasts [11]; 1×IC50, 24 h) was 12.43%. The “BrDU, % of positive cells” value (CCRF-CEM lymphoblasts [11]; 5×IC50, 24 h) was 7.46%, the “<G1 (sub-G1, fragmented DNA), % of positive cells” value (CCRF-CEM lymphoblasts [12]; 1×IC50, 24 h) was 11.00% and the “>G2/M (polyploidy), % of positive cells” value (CCRF-CEM lymphoblasts [12]; 1×IC50, 24 h) was 17.19%. The “G0/G1, % of positive cells” value (CCRF-CEM lymphoblasts [12]; 1×IC50, 24 h) was 4.79%, the “G2/M, % of positive cells” value (CCRF-CEM lymphoblasts [12]; 1×IC50, 24 h) was 66.70% and the “S, % of positive cells” value (CCRF-CEM lymphoblasts [12]; 1×IC50, 24 h) was 28.50%. The “<G1 (sub-G1, fragmented DNA), % of positive cells” value (CCRF-CEM lymphoblasts [12]; 5×IC50, 24 h) was 16.07%, the “>G2/M (polyploidy), % of positive cells” value (CCRF-CEM lymphoblasts [12]; 5×IC50, 24 h) was 14.18% and the “G0/G1, % of positive cells” value (CCRF-CEM lymphoblasts [12]; 5×IC50, 24 h) was 22.95%. The “G2/M, % of positive cells” value (CCRF-CEM lymphoblasts [12]; 5×IC50, 24 h) was 32.79%, the “S, % of positive cells” value (CCRF-CEM lymphoblasts [12]; 5×IC50, 24 h) was 44.26% and the “pH3Ser10, % of positive cells” value (CCRF-CEM lymphoblasts [13]; 1×IC50, 24 h) was 13.49%. The “pH3Ser10, % of positive cells” value (CCRF-CEM lymphoblasts [13]; 5×IC50, 24 h) was 47.08%, the IC50 at 72 h [2] was 0.657 ± 0.132 µM and the IC50 [14] was 8.78 ± 0.88 µM. It also gave an IC50 at 72 h [3] of 11.3 ± 1.41 µM, an IC50 [4] greater than 50 µM and an IC50 (U2OS (osteosarcoma)) of 16.8 ± 3.46 µM. It also gave an IC50 [15] of 10.5 ± 2.48 µM, an IC50 [16] of 4.52 ± 0.64 µM and an IC50 [5] greater than 50 µM. The IC50 [6] was greater than 50 µM.

For `C[C@]12CC[C@@H]3c4ccc(O)cc4CC[C@H]3[C@@H]1CC[C@@]2(O)c1cn(CCOCCn2cc([C@]3(O)CC[C@H]4[C@@H]5CCc6cc(O)ccc6[C@H]5CC[C@@]43C)nn2)nn1` [D2], the Tubulin polymerisation inhibition (porcine brain tubulin [7]) is given as 79.1%.
